We go through three molecules from patent US12391737B2, “Soluble NPY2 receptor agonists” (Boehringer Ingelheim International GmbH, priority 2020, dated 2025).

*1 amine or outer side, *2 acyl side, *3 side chain or, on linkers, in order; H or OH if unused. Side-chain parts run from the residue outwards. The star is where a group is joined. C18 diacid = O=C(O)CCCCCCCCCCCCCCCCC(=O)*; γGlu = O=C(O)[C@H](CCC(=O)[*:2])N[*:1]; Isovaleryl = CC(C)CC(=O)*; Ahx = NCCCCCC(=O)O Some results are limits rather than exact numbers.

The target of data set [1] is T1, Human Neuropeptide Y2 Receptor (Homo sapiens, UniProt P49146).
T1 construct: purchased CHEMICON HTS066M
T1 sequence (P49146 1-381): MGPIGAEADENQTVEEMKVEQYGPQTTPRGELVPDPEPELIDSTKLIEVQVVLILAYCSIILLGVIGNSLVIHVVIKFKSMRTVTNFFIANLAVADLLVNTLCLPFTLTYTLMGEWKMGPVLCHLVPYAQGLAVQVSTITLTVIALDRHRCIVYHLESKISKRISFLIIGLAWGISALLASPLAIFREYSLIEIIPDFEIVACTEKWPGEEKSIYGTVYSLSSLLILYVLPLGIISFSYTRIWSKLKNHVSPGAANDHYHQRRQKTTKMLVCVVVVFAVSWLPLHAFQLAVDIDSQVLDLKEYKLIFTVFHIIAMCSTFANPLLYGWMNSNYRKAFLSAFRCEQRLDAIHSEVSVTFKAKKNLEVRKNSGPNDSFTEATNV
In words: Radioligand binding competition assay (RLB). The note with it: Table 3, 125I-PYY(1-36) competition; read-out: Ki. Summed up:
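Peptides were serially diluted from 1 mM DMSO stocks and competed for radioligand binding to receptor membranes (0.5 μg/well) over 2 h at room temperature, pH 7.4 HEPES buffer. Bound radioactivity on filters was counted by scintillation, and IC50 was derived by nonlinear regression.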

Data set [2] has as its target T2, human NPY1 receptor (hY1R) (Homo sapiens, UniProt P25929).
T2 construct: expressed in transfected cells; host or cells: CHO-K1
T2 sequence (P25929 1-384): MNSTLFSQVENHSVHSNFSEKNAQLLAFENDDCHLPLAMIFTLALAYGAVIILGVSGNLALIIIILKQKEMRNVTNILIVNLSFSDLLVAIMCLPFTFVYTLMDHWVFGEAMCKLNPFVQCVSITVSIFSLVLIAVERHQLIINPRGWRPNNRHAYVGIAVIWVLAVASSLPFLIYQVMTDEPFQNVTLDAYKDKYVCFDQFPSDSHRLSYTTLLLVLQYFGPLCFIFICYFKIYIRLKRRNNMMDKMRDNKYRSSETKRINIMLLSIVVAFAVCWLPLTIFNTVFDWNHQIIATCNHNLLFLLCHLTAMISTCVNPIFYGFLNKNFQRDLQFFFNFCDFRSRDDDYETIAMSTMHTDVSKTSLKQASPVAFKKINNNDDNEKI
Put plainly: HTRF cAMP Gi assay, hY1R. Type of data set: cell-based. To be noted: CHO-K1 cells. For orientation: In TR-FRET formats the signal depends on donor and acceptor labels being close together.
Procedure: (§1) Briefly, the production of intracellular cAMP will generate a competition between unlabeled cAMP and exogenously added d2-cAMP for anti-cAMP antibodies conjugated to cryptate. CHO-K1 cells stably expressing the human NPY1, NPY2, NPY4 and NPY5 receptors were used with the cells brought to life from a frozen stock immediately before assay performance. 2000 cells per well were applied for all four NPY receptor subtype assays. A 384-well format was used applying a total volume of 20 μl using 5 μl cells, 2.5 μl peptide agonist, 2.5 μl forskolin and 5 μl of each of the fluorophores. […] Concentration-response evaluation of compounds was performed with 11 concentrations of agonist peptides (covering 3 decades). EC50 values were calculated by nonlinear regression using sigmoid concentration-response with variable slope.

Data set [3] addresses T3, human NPY4 receptor (hY4R) (Homo sapiens, UniProt P50391).
T3 construct: expressed in transfected cells; host or cells: CHO-K1
Put plainly: HTRF cAMP Gi assay, hY4R. The format is cell-based. To be noted: CHO-K1 cells.

The nature of a further data set: Solubility determination. To be noted: for Sol6: pH 6; for Sol7: pH 7. Summed up:
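Solubility is derived from the ratio of reversed-phase peak areas, filtered sample over a control dissolved at 1 mg/ml in 50% acetonitrile. Peptides are agitated for 2 hours at room temperature in 0.1 M sodium diphosphate at pH 6.4 or 7.0, aiming at 10 mg/ml.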

Another data set has as its system NMRI mice. In words: Effect on acute food intake in normal NMRI mice. The format is in vivo. The note with it: 5 nmol/kg subcutaneously once. The procedure: Male NMRI mice were obtained from Charles River (Charles River, Research Models & Services Germany GmbH) or from JanVier (JanVier Labs, France) at 5 weeks of age. […] Room temperature was controlled to 21° C.±1° C., with 60%±20% humidity.
Animals were transferred 5-7 days before the start of the study to a real-time food intake monitoring system, HM-2 system (MBRose, Denmark), to allow acclimatization to experimental conditions. As the animals were uniquely identified with microchips, each individual animal was identified by its microchip upon entry and exit from the food channel. Randomization of the mice for each study group (n=7-8) was based on body weight measured the day before the start of the study. A vehicle-treated (50 mM phosphate buffer pH7 with 5% Mannitol) group was included in each experiment. Six hours before the start of the night phase animals were fasted. One hour before the dark phase animals were dosed once subcutaneously (5 nmol/kg) with test peptide. […] The food intake of the treated groups was normalized (in %) to the average food intake of the group receiving vehicle (Table 7). Statistical significance was evaluated using One-way analysis of variance with Turkey's multiple comparison test. P<0.05 was considered statistically significant.

Data set [4] deals with T1, Human Neuropeptide Y2 Receptor. Put plainly: Activity (RLB binding) after incubation in solutions at different pH values. The note with it: apparent Ki of filtrate after incubation at pH8.1-8.2, assumed 10 mg/ml; read-out: RLB 8 (pH8.1-8.2). The procedure:
The filtration RLB assay was carried out in 96-well plates in a final volume of 100 μl per well. Freeze-dried test peptides were dissolved in 100% dimethyl sulfoxide (DMSO) to stock solutions of 1 mM and serial dilutions were performed in assay buffer (50 mM HEPES, 5 mM MgCl2, 1 mM CaCl2, pH 7.4) containing 0.2% ovalbumin. […] Next, 80 μL membranes (HTS066M, ChemiSCREEN™ Human Neuropeptide Y2 Receptor Membrane Preparation, CHEMICON) were added to each well to give a final protein concentration of 0.5 μg/well. The plates were sealed and incubated at room temperature for 2 hours in a plate shaker set at 400 rpm. The incubation was stopped by vacuum filtration onto 0.5% polyethylene amine (PE) presoaked GF/C filters using a 96-well FilterMate™ harvester (Perkin Elmer) followed by four washes with 300 μl/well ice-cold wash buffer (50 mM HEPES, 500 mM NaCl, pH7.4). Filter plates were then dried for 60 min at room temperature and the bottom of the plates was sealed with backing tape UniFilter-96. Finally, 50 μl/well scintillation counter cocktail (Microscint20, Packard) was added and the radioactivity was counted in the Packard TopCount NXT scintillation counter. IC50 values (the half maximal inhibitory concentration of the agonist) were calculated by nonlinear regression analysis of sigmoidal dose-response curves.
The peptide was (partially) dissolved by shaking the filter unit horizontally at approx. 400 rpm for 2 hours at room temperature. The sample was filtered to remove any insoluble particles.

The target in data set [5] is T4, human NPY5 receptor (hY5R) (Homo sapiens, UniProt Q15761).
T4 sequence (Q15761 1-445): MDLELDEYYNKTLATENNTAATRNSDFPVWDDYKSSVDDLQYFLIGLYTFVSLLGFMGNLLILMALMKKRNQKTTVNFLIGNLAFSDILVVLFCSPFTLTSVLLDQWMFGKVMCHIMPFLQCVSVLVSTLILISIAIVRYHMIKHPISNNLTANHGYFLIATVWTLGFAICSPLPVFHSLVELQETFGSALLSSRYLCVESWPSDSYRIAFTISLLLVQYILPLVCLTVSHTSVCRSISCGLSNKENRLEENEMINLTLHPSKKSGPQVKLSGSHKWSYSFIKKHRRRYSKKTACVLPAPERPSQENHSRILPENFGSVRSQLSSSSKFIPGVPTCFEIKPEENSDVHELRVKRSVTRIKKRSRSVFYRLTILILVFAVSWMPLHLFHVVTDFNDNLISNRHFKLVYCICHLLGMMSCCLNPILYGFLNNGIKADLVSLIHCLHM
In words: HTRF cAMP Gi assay, hY5R.
Procedure: as §1

Data set [6] addresses T5, human NPY2 receptor (NPY2R) (human, UniProt P49146).
T5 chain: T1 sequence (P49146 1-381)
Put plainly: competition.

T3 sequence (P50391 whole entry): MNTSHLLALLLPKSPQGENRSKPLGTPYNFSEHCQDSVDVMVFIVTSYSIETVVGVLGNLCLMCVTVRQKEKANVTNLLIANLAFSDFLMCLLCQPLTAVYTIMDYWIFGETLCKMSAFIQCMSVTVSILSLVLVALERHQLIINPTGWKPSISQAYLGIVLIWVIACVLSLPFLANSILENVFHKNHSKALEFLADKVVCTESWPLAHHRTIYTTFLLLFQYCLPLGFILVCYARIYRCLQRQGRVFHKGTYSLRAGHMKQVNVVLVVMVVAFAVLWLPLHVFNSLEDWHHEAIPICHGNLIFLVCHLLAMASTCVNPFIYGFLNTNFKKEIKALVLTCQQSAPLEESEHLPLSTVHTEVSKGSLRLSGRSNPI

As a reminder, the EC50 is the concentration needed to bring the measured effect to its halfway point. In the case of `CC[C@H](C)[C@H](NC(=O)[C@H](CCC(=O)O)NC(=O)[C@H](CCC(=O)O)NC(=O)[C@@H]1CCCN1C(=O)[C@@H](NC(=O)[C@H](C)NC(=O)[C@H](CC(=O)O)NC(=O)[C@H](C)NC(=O)[C@H](CCC(=O)O)NC(=O)[C@@H]1CCCN1C(=O)[C@H](CCCCNC(=O)CCCCCNC(=O)CC[C@H](NC(=O)CCCCCCCCCCCCCCCCC(=O)O)C(=O)O)NC(=O)[C@H](CCC(=O)O)NC(=O)[C@@H]1CCCN1C(=O)[C@H](C)NC(=O)CC(C)C)[C@@H](C)O)C(=O)N[C@@H](CCC(N)=O)C(=O)N[C@@H](CCCNC(=N)N)C(=O)N[C@@H](Cc1ccc(O)cc1)C(=O)N[C@@H](Cc1ccc(O)cc1)C(=O)N[C@H](C(=O)N[C@@H](CO)C(=O)N[C@@H](CC(C)C)C(=O)N[C@@H](CCCNC(=N)N)C(=O)N[C@@H](Cc1c[nH]cn1)C(=O)N[C@@H](Cc1ccc(O)cc1)C(=O)N[C@@H](Cc1ccc(O)cc1)C(=O)N[C@@H](CC(N)=O)C(=O)N[C@@H](Cc1c[nH]c2ccccc12)C(=O)N[C@@H](CC(C)C)C(=O)N[C@H](C(=O)N[C@@H](CCCNC(=N)N)C(=O)N[C@@H](CCC(N)=O)C(=O)N[C@@H](CCCNC(=N)N)C(=O)N[C@@H](Cc1ccc(O)cc1)C(N)=O)[C@@H](C)O)C(C)C` [Compound 7, N{alpha-4}-(3-methylbutanoyl)-N{epsilon-7}-(6-[(4S)-4-carboxy-4-(17-carboxyheptadecanamido)butanamido]hexanoyl)[4A,7K,9E,10A,13T,17I,18Q,22V,28Y,30W,31L]-hPYY(4-36)], the Ki in data set [1] amounted to 1.04 nM; in data set [4], 3.1 nM. The EC50 in data set [2], in data set [3] and in data set [5] was above 5 µM throughout. Also, in the data set “Solubility determination”, the “Sol6” value stood at 8.9 mg/mL. Also, the “Sol7” value in “Solubility determination” stood at 9.2 mg/mL. The “Acute Food Intake 24 h [% vehicle]” value in the data set on NMRI mice is 38 % vehicle.

`CC(C)CC(=O)N[C@@H](C)C(=O)N1CCC[C@H]1C(=O)N[C@@H](C)C(=O)N[C@@H](CCCCNC(=O)CCCCCNC(=O)CC[C@H](NC(=O)CCCCCCCCCCCCCCCCC(=O)O)C(=O)O)C(=O)N1CCC[C@H]1C(=O)N[C@@H](CCC(=O)O)C(=O)N[C@@H](CCC(=O)O)C(=O)N[C@@H](CC(=O)O)C(=O)N[C@@H](C)C(=O)N[C@H](C(=O)N1CCC[C@H]1C(=O)N[C@@H](CCC(=O)O)C(=O)N[C@@H](CCC(=O)O)C(=O)N[C@@H](CC(C)C)C(=O)N[C@@H](CCC(N)=O)C(=O)N[C@@H](CCCNC(=N)N)C(=O)N[C@@H](Cc1ccc(O)cc1)C(=O)N[C@@H](Cc1ccc(O)cc1)C(=O)N[C@H](C(=O)N[C@@H](CO)C(=O)N[C@@H](CC(C)C)C(=O)N[C@@H](CCCNC(=N)N)C(=O)N[C@@H](Cc1c[nH]cn1)C(=O)N[C@@H](Cc1ccc(O)cc1)C(=O)N[C@@H](Cc1ccc(O)cc1)C(=O)N[C@@H](CC(N)=O)C(=O)N[C@@H](Cc1c[nH]c2ccccc12)C(=O)N[C@@H](CC(C)C)C(=O)N[C@H](C(=O)N[C@@H](CCCNC(=N)N)C(=O)N[C@@H](CCC(N)=O)C(=O)N[C@@H](CCCNC(=N)N)C(=O)N[C@@H](Cc1ccc(O)cc1)C(N)=O)[C@@H](C)O)C(C)C)[C@@H](C)O` [Compound 26, N{alpha-4}-(3-methylbutanoyl)-N{epsilon-7}-(6-[(4S)-4-carboxy-4-(17-carboxyheptadecanamido)butanamido]hexanoyl)[4A,6A,7K,9E,13T,18Q,22V,28Y,30W,31L]-hPYY(4-36)]: in data set [1], the Ki worked out at 5.64 nM. Also, in the data set “Solubility determination”, the “Sol6” value was 9.2 mg/mL and the “Sol7” value is 9.1 mg/mL. Besides, the “Acute Food Intake 24 h [% vehicle]” value in the data set with NMRI mice was 53 % vehicle. The same molecule yielded an EC50 in data set [5] above 5 µM.

B1: Compound 122 (peptide)
chain: Isovaleryl-APEK([Ahx-γGlu-C18 diacid])PEAEASPEELQRYYVSLRHYYNWLTRQRY-NH2
In the case of B1, in data set [6], the Ki is 2.73 nM.
